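How tested: cells in 96-well plates exposed to compound for 48 hours at five concentrations. GI50 is the concentration that inhibits growth by half. TGI marks complete inhibition of growth.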
Experiments:
Experiment in all cases: growth of human tumour cells (NCI), 48 h
[1] = system: DMS 273 small cell lung
[2] = system: SK-MEL-2 melanoma
[3] = system: KM12 colon
[4] = system: SNB-78 CNS
[5] = system: UACC-257 melanoma
[6] = system: SK-OV-3 ovarian
[7] = system: XF 498 CNS
[8] = system: NCI-H226 lung
[9] = system: DU-145 prostate
[10] = system: NCI/ADR-RES ovarian

## COc1ccc(N/N=C(\CCN(C)C)c2ccccc2)cc1
[1]
  TGI: 11.1 µM
[2]
  TGI: 18.9 µM
[3]
  TGI: 18 µM
[4]
  TGI: 26.9 µM
[5]
  TGI: 16.4 µM
[6]
  TGI: 9.74 µM

## CC(=O)OC1CC2Oc3ccc(C)cc3C(C)(O2)C1=O (stereo not given)
[1]
  TGI: > 100 µM
[7]
  TGI: > 100 µM
[3]
  TGI: > 100 µM
[8]
  TGI: > 100 µM
[5]
  TGI: > 100 µM
[6]
  TGI: > 100 µM

## O=C1c2ccccc2NC1(c1ccccc1)c1c(-c2ccccc2)[nH]c2ccccc12 (stereo not given)
[1]
  TGI: > 100 µM
[7]
  TGI: 99 µM
[2]
  TGI: > 100 µM
[3]
  TGI: > 100 µM
[4]
  TGI: > 100 µM
[5]
  TGI: > 100 µM
[6]
  TGI: > 100 µM

## CC(=O)C1C(=O)NC(=O)C1=O (stereo not given)
[1]
  TGI: > 100 µM
[7]
  TGI: > 100 µM
[2]
  TGI: > 100 µM
[3]
  TGI: > 100 µM
[4]
  TGI: > 100 µM
[8]
  TGI: > 100 µM
[5]
  TGI: > 100 µM
[6]
  TGI: > 100 µM

## C#CCN(N=O)C(=O)NC(CCCNC(=O)OCc1ccccc1)C(=O)OCc1ccccc1 (stereo not given)
[1]
  TGI: > 100 µM
[7]
  TGI: 60.1 µM
[2]
  TGI: > 100 µM
[3]
  TGI: > 100 µM
[4]
  TGI: > 100 µM
[8]
  TGI: > 100 µM
[5]
  TGI: > 100 µM
[6]
  TGI: > 100 µM

## O=C(O)/C(Cl)=C(\Cl)C(=O)NC1C2CC3CC(C2)CC1C3 (stereo not given)
[1]
  TGI: > 100 µM
[7]
  TGI: > 100 µM
[3]
  TGI: 96.2 µM
[4]
  TGI: > 100 µM
[8]
  TGI: > 100 µM
[5]
  TGI: > 100 µM
[6]
  TGI: > 100 µM

## O=C(CC1(O)C(=O)Nc2ccccc21)c1ccco1 (stereo not given)
[1]
  TGI: > 100 µM
[7]
  TGI: > 100 µM
[2]
  TGI: > 100 µM
[4]
  TGI: > 100 µM
[8]
  TGI: > 100 µM
[5]
  TGI: > 100 µM
[6]
  TGI: > 100 µM

## COc1cc2c(cc1OC)C(OC)N(C)c1c-2ccc2cc3c(cc12)OCO3 (stereo not given)
[1]
  TGI: 14.4 µM
[7]
  TGI: 2.95 µM
[2]
  TGI: 5.02 µM
[3]
  TGI: 4.45 µM
[4]
  TGI: > 75 µM
[8]
  TGI: 4.3 µM
[9]
  TGI: > 75 µM
[5]
  TGI: 50.2 µM
[10]
  TGI: > 55.3 µM
[6]
  TGI: 2.53 µM

## COC(=O)CCC(=O)Nc1cc(Cl)ccc1Cl
[7]
  TGI: > 100 µM
[2]
  TGI: > 100 µM
[3]
  TGI: > 100 µM
[4]
  TGI: > 100 µM
[8]
  TGI: > 100 µM
[5]
  TGI: > 100 µM
[6]
  TGI: > 100 µM

## CCOC(=O)C(=O)Nc1ccc(Cl)cc1C
[1]
  TGI: > 100 µM
[7]
  TGI: > 100 µM
[2]
  TGI: > 100 µM
[3]
  TGI: > 100 µM
[4]
  TGI: > 100 µM
[8]
  TGI: > 100 µM
[5]
  TGI: > 100 µM
[6]
  TGI: > 100 µM

## CC(=O)[O-].[Mn+3].[O-]c1ccccc1C=NCCN=Cc1ccccc1[O-]
[1]
  GI50: > 100 µM
  TGI: > 100 µM
[3]
  GI50: 84.9 µM
  TGI: > 100 µM
[8]
  GI50: > 100 µM
  TGI: > 100 µM
[5]
  GI50: 51.2 µM
  TGI: > 100 µM

## COc1cc(O)c2c(c1)C(=O)C=C(Cl)C2=O
[1]
  TGI: > 100 µM
[7]
  TGI: > 100 µM
[2]
  TGI: > 100 µM
[3]
  TGI: > 100 µM
[4]
  TGI: > 100 µM
[8]
  TGI: > 100 µM
[5]
  TGI: > 100 µM
[6]
  TGI: > 100 µM

## CC(=O)O[C@H]1CCC2[C@@H]3CCC4=C(O)C(=O)C(C#N)C[C@]4(C)C3CC[C@@]21C (stereo not given in full)
[1]
  TGI: > 100 µM
[7]
  TGI: > 100 µM
[2]
  TGI: > 100 µM
[3]
  TGI: > 100 µM
[4]
  TGI: > 100 µM
[8]
  TGI: > 100 µM
[5]
  TGI: > 100 µM
[6]
  TGI: > 100 µM

## CN1C(c2ccccc2)CS(=O)(=O)CS1(=O)=O (stereo not given)
[1]
  TGI: > 100 µM
[7]
  TGI: > 100 µM
[2]
  TGI: > 100 µM
[3]
  TGI: > 100 µM
[4]
  TGI: > 100 µM
[5]
  TGI: > 100 µM
[6]
  TGI: > 100 µM

## CN(CC#N)C1CCCC[C@H]1O (stereo not given in full)
[1]
  TGI: > 100 µM
[7]
  TGI: > 100 µM
[2]
  TGI: > 100 µM
[3]
  TGI: > 100 µM
[4]
  TGI: > 100 µM
[8]
  TGI: > 100 µM
[5]
  TGI: > 100 µM
[6]
  TGI: > 100 µM

## CN(C)CCNC(=O)c1cccc2c(Nc3ccc(S(N)(=O)=O)cc3)c3ccccc3nc12
[1]
  TGI: 3.71 µM
[7]
  TGI: 1.81 µM
[2]
  TGI: 3.69 µM
[8]
  TGI: 3.05 µM
[5]
  TGI: 9.83 µM
[6]
  TGI: 3.59 µM

## Cc1ccc(NC(=O)C(=O)CC(=O)C2CCOC2=O)c(C)c1 (stereo not given)
[1]
  TGI: > 100 µM
[7]
  TGI: > 100 µM
[2]
  TGI: > 100 µM
[3]
  TGI: > 100 µM
[4]
  TGI: > 100 µM
[8]
  TGI: > 100 µM
[5]
  TGI: > 100 µM
[6]
  TGI: > 100 µM

## O=S(=O)(N/N=C/c1cccc(Cl)c1Cl)c1ccccc1
[1]
  TGI: > 100 µM
[7]
  TGI: > 100 µM
[2]
  TGI: > 100 µM
[3]
  TGI: > 100 µM
[4]
  TGI: > 100 µM
[8]
  TGI: > 100 µM
[5]
  TGI: > 100 µM
[6]
  TGI: > 100 µM

Reference: PubChem BioAssay (NCI)
